Reference: US6673807B1, “Immunosuppressive imidazole derivatives and their combination preparations with tacrolimus or cyclosporins” (Fujisawa Pharmaceutical Co., Ltd., priority 1998, dated 2004)

Tests used:
rat cardiac allograft = assay: Rat cardiac allograft survival (Lewis donor to ACI recipient, heterotopic intra-abdominal cardiac transplantation); type: in vivo; conditions: for MST (Median Survival Time): daily gastric intubation for 14 days
Description: Protective effect of the compound (f) or (g) combined with FK506 on rat cardiac allograft:
(§1) Experiments were performed on male Lewis and ACI rats weighing 175-200 g. Rats were anesthetized with sodium pentobarbital (50 mg/kg, i.p), and performed allogeneic (Lewis donor to ACI recipient) heterotopic intra-abdominal cardiac transplantation. Experimental groups were divided into single-drug group and combined-drug groups. Single-drug dose of FK506 was 0.32 mg/kg. Combined-dose groups were FK506(0.32 mg/kg)+the compound (f) (3.2 mg/kg), FK506(0.32 mg/kg)+the compound (f) (10 mg/kg), and FK506(0.32 mg/kg)+the compound (g) (10 mg/kg). The grafted hearts were monitored by daily palpation and complete rejection was defined as the cessation of palpable contractile activity. Drugs were suspended in a solution of 0.5% methylcellulose, and administered by daily gastric intubation in a volume of 5 ml/kg of body weight for 14 days. The blood samples were collected on 5 days after transplantation for analysis of nitrite/nitrate (NOx). The concentration of NOx in rat plasma was measured by using a spectrophotometric assay based upon the Griess reaction.

NOx in rat plasma = assay: Concentration of nitrite/nitrate (NOx) in rat plasma after cardiac transplantation (Griess reaction); type: in vivo
Description: as §1

[1] = tested on: production of nitric oxide in RAW264.7 cells; assay: Assay for inhibitory activity on the production of nitric oxide (Griess, LPS + INFγ activated cells); type: cell-based, murine; conditions: Mus musculus; test compound 10^-5 M; RAW264.7 cells activated with LPS 1 μg/ml and INFγ 3 u/ml for 18-24 hours
Description: Test: Assay for Inhibitory Activity on the Production of Nitric Oxide
The murine macrophage cell line RAW264.7 (American Type Culture Collection, No. TIB71) was used in this study. RAW264.7 cells were grown on F75 plastic culture flasks at 37° C., 5% in Dulbecco's modified Eagle's medium (DMEM) supplemented with L-glutamine, penicillin, streptomycin and 10% heat-inactivated fetal bovine serum. They were removed from culture flasks by rubber cell scraper and were centrifuged and resuspended in DMEM without phenol red. They were plated in 96-well microtiter plates (10^5 cells per well) and allowed to adhere over 2 hours. The test samples were added and the cells were preincubated for 1 hour. Thereafter the cells were activated with both of lipopolysaccharide (LPS) (1 μg/ml) and interferon γ (INFγ) (3 u/ml) for 18-24 hours. An equal volume of Griess reagent (1% sulfanilamide/0.1% N-naphthylethylenediamine dihydrochloride/2.5% H3PO4) was added and the cells were incubated at room temperature for 10 minutes. The absorbance was read at 570 nm using microplate reader and NO2 was measured using NaNO2 as a standard.

| SMILES | inhibition at 10 µM [1] [%] | other results |
| --- | --- | --- |
| C=CC[C@@H]1/C=C(\C)C[C@H](C)C[C@H](OC)[C@H]2O[C@@](O)(C(=O)C(=O)N3CCCC[C@H]3C(=O)O[C@H](/C(C)=C/[C@@H]3CC[C@@H](O)[C@H](OC)C3)[C@H](C)[C@@H](O)CC1=O)[C@H](C)C[C@@H]2OC [FK506, 17-allyl-1,14-dihydroxy-12-[2-(4-hydroxy-3-methoxycyclohexyl)-1-methylvinyl]-23,25-dimethoxy-13,19,21,27-tetramethyl-11,28-dioxa-4-azatricyclo[22.3.1.0^4,9]octacos-18-ene-2,3,10,16-tetraone, reference compound] | – | MST (Median Survival Time) (rat cardiac allograft; Table 1, FK506 0.32 mg/kg alone): 8.5 days; MST (Median Survival Time) (rat cardiac allograft; Table 2, FK506 0.32 mg/kg alone): 10 days; NOx (NOx in rat plasma; Table 1, FK506 0.32 mg/kg alone, rat plasma, 5 days after transplantation): >40 µM |
| CCOc1ccc(-c2c(Cc3ccccc3)nc([C@H](Cc3ccccn3)NC(=O)c3cc4ccccc4[nH]3)n2C)cc1 [(a)] | 100 | – |
| Cn1c(-c2ccc([N+](=O)[O-])cc2)cnc1[C@H](Cc1ccccn1)NC(=O)c1cc2cc(Cl)ccc2[nH]1 [(b)] | 100 | – |
| COc1ccc(NC(=O)C[C@H](NC(=O)c2cc3ccccc3[nH]2)c2ncc(-c3ccc([N+](=O)[O-])cc3)n2C)cc1 [(d)] | 100 | – |
| Cn1c(-c2ccc([N+](=O)[O-])cc2)cnc1[C@H](CC(=O)Nc1ccccn1)NC(=O)c1cc2ccccc2[nH]1 [(c)] | 100 | – |
| Cn1c(-c2ccc([N+](=O)[O-])cc2)cnc1[C@H](CC(=O)Nc1ccc2c(c1)OCO2)NC(=O)c1cc2ccccc2[nH]1 [(e)] | 100 | – |
| Cn1c(-c2ccc(N3CCOCC3)cc2)cnc1[C@H](Cc1ccccn1)NC(=O)c1cc2cc(Cl)ccc2o1 [(g)] | 100 | MST (Median Survival Time) (rat cardiac allograft; Table 2, compound (g) 10 mg/kg + FK506 0.32 mg/kg): >30 days; graft survival (rat cardiac allograft; combination with FK506, rat cardiac allograft): dramatically prolonged; elevated NOx production during cardiac allograft rejection (NOx in rat plasma; rat cardiac allograft, in a dose-dependent manner): inhibited |
